PubChem BioAssay AID651782 (The Scripps Research Institute Molecular Screening Center, 2012)
Activity calls are given as the source filed them.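 Rule for the calls: active = IC50 of 10 µM or lower; inactive = IC50 above 10 µM.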

The molecules below were run against Nuclear receptor coactivator 2 (Homo sapiens) (UniProt Q15596) (assay: SRC2 (NCOA2) coactivator inhibitors, late-stage follow-up, selectivity assay for SRC3 inhibitor project, cell-based, HEK293, GAL4-SRC2 luciferase, powder samples (AID 651782)). Settings: HEK293 GAL4-SRC2 luciferase reporter, luminescence.
Sequence of Nuclear receptor coactivator 2 (Homo sapiens) (Q15596 whole entry, looked up, the tested form may be a part): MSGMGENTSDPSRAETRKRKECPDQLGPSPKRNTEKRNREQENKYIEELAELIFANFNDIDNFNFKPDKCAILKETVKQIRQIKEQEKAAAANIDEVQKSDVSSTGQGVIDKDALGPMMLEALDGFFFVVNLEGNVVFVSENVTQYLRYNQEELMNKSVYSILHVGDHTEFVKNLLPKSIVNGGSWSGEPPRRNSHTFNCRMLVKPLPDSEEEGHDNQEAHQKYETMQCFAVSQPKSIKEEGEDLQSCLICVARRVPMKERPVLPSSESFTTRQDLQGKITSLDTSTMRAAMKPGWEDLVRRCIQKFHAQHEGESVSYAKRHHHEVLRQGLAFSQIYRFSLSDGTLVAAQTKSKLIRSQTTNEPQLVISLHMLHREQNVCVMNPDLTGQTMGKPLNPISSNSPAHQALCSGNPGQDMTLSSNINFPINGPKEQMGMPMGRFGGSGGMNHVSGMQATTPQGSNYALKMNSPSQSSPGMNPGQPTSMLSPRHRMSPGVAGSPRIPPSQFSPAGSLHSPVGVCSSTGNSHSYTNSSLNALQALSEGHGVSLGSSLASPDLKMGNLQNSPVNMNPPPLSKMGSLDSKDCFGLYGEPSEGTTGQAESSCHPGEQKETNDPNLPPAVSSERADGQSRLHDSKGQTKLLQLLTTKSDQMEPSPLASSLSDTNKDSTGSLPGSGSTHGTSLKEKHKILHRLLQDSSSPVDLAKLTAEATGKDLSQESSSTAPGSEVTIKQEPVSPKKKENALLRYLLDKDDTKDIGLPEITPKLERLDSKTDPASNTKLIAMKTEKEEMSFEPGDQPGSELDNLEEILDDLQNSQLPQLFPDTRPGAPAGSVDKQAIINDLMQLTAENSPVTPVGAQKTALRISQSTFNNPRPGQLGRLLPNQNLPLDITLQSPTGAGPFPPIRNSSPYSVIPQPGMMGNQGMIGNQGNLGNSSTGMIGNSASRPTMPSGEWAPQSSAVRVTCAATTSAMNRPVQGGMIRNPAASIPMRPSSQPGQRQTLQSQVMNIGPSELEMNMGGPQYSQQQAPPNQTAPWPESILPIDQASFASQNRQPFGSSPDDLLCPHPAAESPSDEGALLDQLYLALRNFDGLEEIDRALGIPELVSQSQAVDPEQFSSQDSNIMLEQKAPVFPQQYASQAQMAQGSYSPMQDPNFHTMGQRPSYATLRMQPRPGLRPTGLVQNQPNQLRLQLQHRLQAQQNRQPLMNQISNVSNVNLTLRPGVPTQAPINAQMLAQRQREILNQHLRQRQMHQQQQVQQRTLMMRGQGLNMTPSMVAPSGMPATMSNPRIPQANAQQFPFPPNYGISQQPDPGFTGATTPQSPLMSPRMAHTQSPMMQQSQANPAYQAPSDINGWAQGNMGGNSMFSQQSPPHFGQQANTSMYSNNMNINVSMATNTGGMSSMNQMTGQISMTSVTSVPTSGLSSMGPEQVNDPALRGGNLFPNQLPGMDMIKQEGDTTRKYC
Molecule `OCCN1CCN(C(=S)c2ccc(-c3ccccc3)cc2)CC1` has an IC50 of 4.68 µM.
In the case of `CN1C(=O)C2(C(C#N)=C(N)N(c3cc(Cl)cc(Cl)c3)C3=C2C(=O)CCC3)c2ccccc21` (stereo not drawn), the IC50 is reported as > 35.9 µM (inactive).
Molecule `O=C(Nc1ccccc1Oc1ccccc1)c1cc([N+](=O)[O-])ccc1Cl` has an IC50 of 5.4 µM.
For `CC(C)(C)c1ccc(-c2noc(CCC(=O)Nc3cccnc3)n2)cc1`, the IC50 was > 35.9 µM (inactive).
With `O=C(COC(=O)c1ccc[nH]c1=O)Nc1ccc(N2CCCCC2)cc1` the IC50 was > 35.9 µM (inactive).
In the case of `Cc1ccc(OCC(=O)c2cc(C)n(-c3ccccc3)c2C)c([N+](=O)[O-])n1`, the IC50 is reported as “inactive”.
With `CN1C(=O)C2(C(C#N)=C(N)N(c3cc(Cl)cc(Cl)c3)C3=C2C(=O)CC(C)(C)C3)c2ccccc21` (stereo not drawn) the IC50 was “inactive”.
`CCCNC(=O)c1nnsc1S(=O)(=O)c1ccc(Cl)cc1` was tested, and the IC50 was “inactive”.
